Results on five molecules are retold here after US5236926A, “9-substituted-8-halo or -8-hydroxy-9-deazaguanines as inhibitors or PNP for pharmaceutical compositions” (Warner-Lambert Company, priority 1992, dated 1993).

SMILES strings stand for the structures.

For assay [1], the target named is T1, purine nucleoside phosphorylase (PNP-4) (Homo sapiens, UniProt P00491).
T1 construct: using human erythrocyte as the enzyme source; from tissue; host or cells: human erythrocyte
T1 sequence (P00491 1-289): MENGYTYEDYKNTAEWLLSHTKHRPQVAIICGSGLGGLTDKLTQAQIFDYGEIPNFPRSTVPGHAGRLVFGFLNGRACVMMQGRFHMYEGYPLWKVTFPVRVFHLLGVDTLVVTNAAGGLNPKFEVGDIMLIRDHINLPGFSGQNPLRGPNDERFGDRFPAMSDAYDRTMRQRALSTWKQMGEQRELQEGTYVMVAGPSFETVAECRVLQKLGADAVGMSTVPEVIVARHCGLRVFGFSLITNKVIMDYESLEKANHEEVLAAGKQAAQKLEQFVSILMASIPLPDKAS
As to the kind of experiment: PNP-4 enzyme assay (radiochemical, [14C]-hypoxanthine formation from [14C]inosine). In kind it is biochemical. The note with it: human erythrocyte as enzyme source; activity table. As to the method:
In the purine nucleoside phosphorylase (PNP-4) enzyme assay, an IC50 is achieved at a dose of about from 0.9 to 3.18 micromoles on selected compounds of the present invention. PNP-4 activity for the compounds of Formula I is measured radiochemically by measuring the formation of [^14 -C]-hypoxanthine from [^14 -C]inosine [Biomedicine 33:39 (1980)]using human erythrocyte as the enzyme source. An in vivo inhibition of purine nucleoside phosphorylase (HPLC-1) enzyme assay is used essentially as disclosed in the Annals of New York Academy of Sciences 451:313 (1985) to further show the activity of the compounds of Formula I of the present invention. […] Since removal of T-cells or modulation of T-cells are beneficial in the treatment of autoimmune diseases, these compounds being selectively cytotoxic to T-cells will, therefore, be useful in their treatment. […] Clinically it has been shown that modulation and/or removal of T-cells by thoracic duct drainage, lymphapheresis, or total lymphoid irradiation gave partial to complete relief from rheumatoid arthritis in patients who were totally refractory to other forms of therapy [A. Tanay, et al, Arthritis and Rheumatism 30(1):1 (1987); S. Strober, et al, Annual of Internal Medicine V-102(4):441-449 (1985); H. G. Nusslein, et al, Arthritis and Rheumatism V-28(11):1205-1210 (1985); E. Brahn, et al, ibid V-27(5):481-487 (1984); and J. Karsh, et al, ibid V 24(7):867-873. (1981)]. […] N. Ellis, et al, JAMA V-256( 22):3110-3116 (Dec. 12, 1986).

Assay [2] has as its system skin graft in dogs. The conditions noted are these: cited from earlier work.

For `Nc1nc2c(Cc3ccsc3)c(Br)[nH]c2c(=O)[nH]1` [Example 3, 2-Amino-6-bromo-3,5-dihydro-7-(3-thienylmethyl)-4H-pyrrolo[3,2-d]pyrimidin-4-one], in assay [1], it took 6900 nM to reach half-maximal inhibition (IC50).

`Nc1nc2c(Cc3ccsc3)c(Cl)[nH]c2c(=O)[nH]1` [Example 6, 2-Amino-6-chloro-3,5-dihydro-7-(3-thienylmethyl)-4H-pyrrolo[3,2-d]pyrimidin-4-one]: the midpoint of inhibition in assay [1], the IC50, lay at 2770 nM.

On to `Nc1nc2c(Cc3ccsc3)c(F)[nH]c2c(=O)[nH]1` [Example 8, 2-Amino-6-fluoro-3,5-dihydro-7-(3-thienylmethyl) 4H-pyrrolo[3,2-d]pyrimidin-4 one], for which it took 150 nM to reach half-maximal inhibition in assay [1] (IC50).

For `Nc1nc2c(Cc3ccsc3)c(I)[nH]c2c(=O)[nH]1` [Example 5], the half-inhibitory concentration (IC50) (usually the concentration that gives 50% inhibition) in assay [1] is more than 30000 nM.

Take `Nc1nc2c(nc(N)n2[C@@H]2O[C@H](CO)[C@@H](O)[C@H]2O)c(=O)[nH]1` [8-Aminoguanosine]: the “inhibition of rejection of skin graft” value in assay [2] is recorded as “efficacious for inhibiting rejection of skin graft in dogs”.
